Measurements taken from US20240150396A1 (The Texas A&M University System, priority 2021, published 2024).
Where “and” joins values, the source holds several entries; their conditions need not be identical. Identical values can stand only once. Entries after “also recorded” stand apart in the source; their conditions may differ. Like-named read-outs stand apart in the source and are kept apart here.

What was measured:
cruzain = cruzain (Trypanosoma cruzi, UniProt P25779); experiment: biochemical
Method in brief: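 Fluorogenic assay at 25 °C following AMC release (ex 360/em 460 nm), with typically 0.2 nM cruzain and 10% DMSO, at pH 7.5 or 5.5 buffer with 5 mM DTT.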

SARS-CoV-2 3CL protease = SARS-CoV-2 3CL protease (Severe acute respiratory syndrome coronavirus 2 (2019-nCoV) (SARS-CoV-2), UniProt P0DTD1); experiment: biochemical; type: biochemical; conditions: pH 7.5; for Ki: read-out: Ki* 3CLpro
[1] = system: SARS-CoV-2 in Vero E6 cells; experiment: Anti-CoV-2 activity in Vero E6 cells; type: cell-based
[2] = Detection of aldehyde content using phenylhydrazine; type: physicochemical; conditions: aqueous buffer, 1 mM phenylhydrazine, 2 hours
Protocol: Detection of Aldehyde Content Using Phenylhydrazine. In a 96-well clear microplate, compounds 52 and 36 in DMSO solutions, or pure DMSO as a control, were diluted into the above NMR buffer without addition of DTT to make 250 μL-samples, each containing 0.2 mM of compounds and 10% DMSO (v/v). Upon addition of 1M phenylhydrazine (0.25 μL), the formation of phenylhydrazone in these wells were continuously monitored for 2 hours by measuring UV absorbance at the maximal wavelength of 282 nm.

[3] = mice, intravenous administration, data not shown
[4] = Host cell cytotoxicity in the T. cruzi infection model; type: cell-based, mouse; conditions: mouse
Method in brief: (§1)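 C2C12 murine cardiomyoblasts infected with T. cruzi were incubated with compound 48 h at 37 °C, fixed in 2% PFA and stained with 5 μg/ml DAPI. Automated microscopy imaging quantified host cells and parasites separately; host cytotoxicity derived as CC50.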

[5] = Thiolation of inhibitors with glutathione, LCMS; type: physicochemical; conditions: for Rate of Thiolation, k: 1 mM glutathione, 0.5 mM compound, Tris pH 8.0, 10% DMSO, room temperature
Protocol: Samples were analyzed by HPLC-MS (as described above) by injecting 0.01 mL aliquots onto a Luna […] C18(2) 100 Å, 4.6 mm, 50 mm column (Phenomenex) using the HPLC method described in the chemistry section at 0-6 h time points. […] Integration of the chromatographic peaks of the inhibitors and their GSH adducts at each time point was used to determine the rate of GSH adduct formation.

[6] = Solubility of cruzain inhibitors in 10% DMSO, light scattering; type: physicochemical
Protocol: Synthetic PVHIs such as 5-16 and 22-24 at final concentrations of 1-200 μM were added to 0.25 mL solutions of 10% DMSO (v/v) in clear 96-well Greiner plates, and absorbance at 620 nm was measured using a BioTek M2 Synergy plate reader at t=0 and 120 min to evaluate increased light scattering and precipitated inhibitor.

[7] = system: C2C12 mouse cardiomyoblast cell line; experiment: Host cell cytotoxicity in the T. cruzi infection model; type: cell-based
Method in brief: as §1

[8] = conversion of EI* back to EI, from kobs replot or recovery after preincubation and dilution
[9] = obtained >10 minutes following initiation of reaction by addition of enzyme, pH 7.5, read-out: Ki* Cruzain
[10] = Ki* Cruzain, obtained >10 minutes following initiation of reaction by addition of enzyme, pH 7.5
[11] = apparent initial inhibition constant, 25° C., pH 7.5, read-out: Ki
[12] = apparent tight-binding inhibition constant, 25° C., pH 7.5, read-out: Ki*

Sequence of cruzain (P25779 123-467 limits assumed): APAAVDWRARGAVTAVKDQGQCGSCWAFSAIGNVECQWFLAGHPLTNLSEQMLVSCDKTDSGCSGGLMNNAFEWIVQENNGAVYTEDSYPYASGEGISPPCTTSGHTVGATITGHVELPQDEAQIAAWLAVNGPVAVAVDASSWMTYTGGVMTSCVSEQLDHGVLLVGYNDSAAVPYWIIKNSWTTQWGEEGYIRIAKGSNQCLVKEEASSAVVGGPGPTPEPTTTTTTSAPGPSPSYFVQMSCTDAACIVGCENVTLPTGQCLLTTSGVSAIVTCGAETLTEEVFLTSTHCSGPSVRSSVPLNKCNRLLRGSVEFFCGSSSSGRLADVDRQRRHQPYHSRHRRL

| SMILES | ratio of Ki* of SMAI to Ki* of its free aldehyde (cruzain) | k4 (cruzain; [8]) | Ki (cruzain; [9]) [µM] | Ki (SARS-CoV-2 3CL protease) [µM] | EC50 [1] | Ki (cruzain; [10]) [µM] | Ki (cruzain; [11]) [µM] | Ki (cruzain; [12]) [µM] | apparent rate of GSH addition relative to K11777 [5] [fold] | Rate of Thiolation, k [5] | CC50 [7] [µM] | further results |
| --- | --- | --- | --- | --- | --- | --- | --- | --- | --- | --- | --- | --- |
| CN1CCN(C(=O)NC(Cc2ccccc2)C(=O)NC2Cc3ccccc3OC2O)CC1 (stereo not drawn) [Compound 36] | 94 | (1.8±0.7)×10^−4 s^−1 | 0.047 | > 10 | 7.5 µM | – | – | – | – | – | – | residence time τ (cruzain; preincubation, dilution, recovery of cruzain activity): 26 min; free aldehyde by phenylhydrazine treatment [2]: no free aldehyde could be detected; also recorded: remained intact after 2 hours; half-life [3]: short half-life |
| C[n+]1ccccc1/C=C/[C@H](Cc1ccccc1)NC(=O)[C@H](Cc1ccccc1)NC(=O)OCc1ccccc1.[I-] [Compound 12, 2-((S,E)-3-((S)-2-(((Benzyloxy)carbonyl)amino)-3-phenylpropanamido)-4-phenylbut-1-en-1-yl)-1-methylpyridin-1-ium Iodide] | – | – | – | – | – | 0.12 to 0.4 | 3.8 ± 0.4 | 0.28 ± 0.08 | 8 | 0.617 ± 0.033 M⁻¹ s⁻¹ | – | Ki (cruzain; Ki*, apparent tight-binding inhibition constant, 25° C., pH 7.5): 0.12 µM; CC50 at 48 h [4]: > 10 µM; solubility ([6]; in 10% DMSO): ≥ 50 µM |
| C[n+]1ccccc1/C=C/[C@H](CCc1ccccc1)NC(=O)[C@H](Cc1ccccc1)NC(=O)OCc1ccccc1 [Compound 15, 2-((S,E)-3-((S)-2-(((Benzyloxy)carbonyl)amino)-3-phenylpropanamido)-5-phenylpent-1-en-1-yl)-1-methylpyridin-1-ium] | – | ≈ 0 s^−1 | 0.12 to 0.4 | – | – | – | 0.76 ± 0.04 | 0.126 | 8 | 0.9 ± 0.067 M⁻¹ s⁻¹ | > 10 | Ki (cruzain; calculated from global fitting to eq 6, read-out: Ki*): 0.6 ± 0.2 µM; k3 (cruzain; fitting to eq 4): 0.004 ± 0.001 s⁻¹; k3 (cruzain; global fitting to eq 6): 0.0012 ± 0.0004 s⁻¹; k4 (cruzain; global fitting to eq 6): 0.00019 ± 0.00005 s⁻¹; Ki (cruzain; global fitting to eq 6, read-out: Ki): 4.3 ± 0.1 µM; Ki lower than the values with the three human cathepsins (cruzain; pH 5.5): over 10 fold; Ki (cruzain; pH 5.5, 25° C., 10% DMSO, read-out: Ki* Cruzain): 0.088 ± 0.002 µM; Ki (cruzain; pH 5.5, read-out: Ki* Cruzain): 0.088 µM; Ki (cruzain; replot of kobs vs inhibitor, fitting to eq 4, read-out: Ki): 2 ± 0.9 µM; solubility [6]: ≥ 50 µM |
| O=C(N[C@@H](Cc1ccccc1)C(=O)N[C@H](/C=C/c1ccccn1)Cc1ccccc1)OCc1ccccc1 [Compound 11, Benzyl ((S)-1-Oxo-3-phenyl-1-(((S,E)-1-phenyl-4-(pyridin-2-yl)-but-3-en-2-yl)amino)propan-2-yl)carbamate] | – | 0.0012 ± 0.0002 s⁻¹ | – | – | – | 0.12 to 0.4 | 5.5 ± 0.4 | 0.31 | – | Negligible | – | CC50 at 48 h ([4]; host cardiomyoblasts, read-out: C2C12 Cytotoxicity CC50): > 10 µM |
| O=C(N[C@@H](Cc1ccccc1)C(=O)N[C@H]1Cc2ccccc2OC1O)OCc1ccccc1 (stereo partly drawn) [Compound 30] | 110 | – | 0.049 | > 10 | 5 µM and 2.5 to 7.5 µM | – | – | – | – | – | > 10 | Ki* 3CLpro (SARS-CoV-2 3CL protease): not an inhibitor of 3CL protease |
